Data from patent US12121552B2, “Pseudomonas chlororaphis species and its use in the control of fish diseases caused by bacteria and fungi” (T3 Bioscience, Inc., priority 2022, dated 2024).
In brackets after ≈: the same amount, converted by molar mass.

Key:
Experiment in all cases: MIC/MLC broth dilution assay against fish pathogens
Type in all cases: cell-based
[1] = test system: Streptococcus agalactiae; settings: (TSAY/TSBY)/28° C./48 h; for MIC: Streptococcus agalactiae, read-out: Minimum Inhibitory Concentration
[2] = test system: Renibacterium salmoninarum; settings: KDM-2/15° C./14 days, read-out: Minimum Inhibitory Concentration
[3] = test system: Piscirickettsia salmonis; settings: L15/15° C./21 days, read-out: Minimum Inhibitory Concentration
[4] = test system: Tenacibaculum maritimum; settings: (MA/MB)/15° C./8 days
[5] = test system: Flavobacterium columnare; settings: TYES/20° C./2 days, read-out: Minimum Inhibitory Concentration
[6] = test system: Streptococcus iniae; settings: (TSAY/TSBY)/28° C./48 h; for MIC: Streptococcus iniae, read-out: Minimum Inhibitory Concentration
[7] = test system: Aeromonas salmonicida; settings: (TSA/TSB)/20° C./24 h, read-out: Minimum Inhibitory Concentration
[8] = test system: Vibrio parahaemolyticus; settings: (TSA2/TSB2)/37° C./24 h, read-out: Minimum Inhibitory Concentration

SMILES | MIC [1] | MIC [2] | MIC [3] | Minimum Lethal Concentration [4] | MIC ([4]; Tenacibaculum maritimum, read-out: Minimum Inhibitory Concentration) | MIC [5] | MIC [6] | MIC [7] | Minimum Lethal Concentration [1] | MIC [8] | Minimum Lethal Concentration [6]
CCCCCCc1c(O)cc(CCCCC)cc1O (single isomer, unassigned) [Peak 2] | 6.25 µg/mL (≈ 23.6 µM) | 50 µg/mL (≈ 189 µM) | 12.5 µg/mL (≈ 47.3 µM) | 200 µg/mL | 3.13 µg/mL (≈ 11.8 µM) | 0.5 µg/mL (≈ 1.89 µM) | 0.39 µg/mL (≈ 1.47 µM) |  |  |  | 
CCCCCCCc1cc(O)c(CCCCCC)c(O)c1 (single isomer, unassigned) [Peak 3] | 6.25 µg/mL (≈ 21.4 µM) | 50 µg/mL (≈ 171 µM) | 12.5 µg/mL (≈ 42.7 µM) |  |  | 0.39 µg/mL (≈ 1.33 µM) | 0.39 µg/mL (≈ 1.33 µM) | 100 µg/mL (≈ 342 µM) | 50 µg/mL | 1.56 µg/mL (≈ 5.33 µM) | 25 µg/mL
